In patent publication US12012408B2, “Purine compounds and method for the treatment of cancer” (THE ROYAL INSTITUTION FOR THE ADVANCEMENT OF …, priority 2018, dated 2024):

Columns and labels:
[1] = test system: autophagy (LC3) in MDA-MB-231 and BT-20 cells; assay: Autophagy markers: LC3 western blot, LC3 puncta immunofluorescence, mCherry-GFP-LC3 flux; type: cell-based
Method: (§1) Sub-confluent cells were washed with PBS, lysed in RIPA buffer (50 mM Tris-HCl at pH7.5, 150 mM sodium chloride, 1% tritonX-100, 0.1% SDS, 2 mM EDTA and 25 mM sodium fluoride) supplemented with 1 mM PMSF and protease inhibitor cocktail (Roche) for 10 min on ice and centrifuged (13,000 rpm at 4° C. for 20 min) to separate cell lysate. Cell lysate (50 μg protein, as measured by the Bradford protein assay) was then added with SDS sample buffer (Tris at pH 6.8, 20% glycerol, 5% SDS, bromophenol blue and β-mercaptoethanol) and boiled for 5 min. Samples were then resolved through 13% SDS-PAGE gels, transferred to nitrocellulose membrane, blotted with specific first antibodies at different dilution in cold room overnight, and then amplified with horseradish peroxidase-conjugated secondary antibodies for 1 hour in room temperature and enhanced by chemiluminescence detection system.
Cells were grown on 18-mm cover glass, placed in 6-well culture plate for 24 hours, rinsed in PBS, fixed with 4% paraformaldehyde/PBS for 10 min, washed twice in PBS with 0.2% TritonX-100, blocked in PBS with 0.2% Triton X-100 containing 1% BSA (Bioshop) and incubated with primary antibodies overnight at 4° C. (all in 1/100 diluted in blocking solution). The cells were washed with PBS containing 0.2% TritonX-100 and subsequently incubated with Alexa Fluor 488-labelled, Alexa Fluor 594-labelled, or Alexa Fluor 647-labelled secondary antibodies (all were used at 1/500 dilution in blocking solution) for 1 hour in room temperature. The nuclei were stained with DAPI (0.1 μg/ml) for 5 min before mounted with aqueous mounting medium. Cells were imaged using WaveFX spinning disk confocal microscope system (Quorum Technologies INC.). Images shown are representative of three independent experiments.
In order to determine whether SLLN-15 affects autophagy in triple-negative breast cancer cells, we first investigated its effect on the formation of autophagosomes by detecting the conversion of LC3-I to lipidated LC3-II and the distribution of endogenous LC3 puncta, both classic markers of autophagy regulation (Klionsky D J et al. Guidelines for the use and interpretation of assays for monitoring autophagy (3rd edition) Autophagy 2016; 12:1-222). […] In order to visualize the induction of autophagy by SLLN-15, we then used transmission electron microscopy.
Distinguishing between autophagy inducers and inhibitors is a delicate task, since both cause a build-up of LC3-II and LC3-positive puncta (Mizushima N, et al. Methods in mammalian autophagy research Cell 2010; 140:313-26). Therefore, to further determine the role of SLLN-15 on autophagy, we next investigated its impact on autophagic flux using a tandem monomeric mCherry-GFP-tagged LC3. […] SLLN-15-induced autophagic flux was further examined in the presence or absence of the autophagosome-lysosome fusion inhibitor, chloroquine (CQ) (Mizushima N, et al. Methods in mammalian autophagy research Cell 2010; 140:313-26). […] This observation was further confirmed by detecting the number of LC3 puncta in SLLN-15-treated cells, as compared to SLLN-15 combined with CQ (FIG. 3D).

[2] = test system: Aurora A, Aurora B, Aurora C in MDA-MB-231 and BT-20 cells; assay: Western blot of cellular Aurora kinase phosphorylation and expression; type: cell-based
Method: as §1
(§2) To further evaluate cellular Aurora kinase inhibitory activity of SLLN-15, western blot analysis was carried out in both MDA-MB-231 and BT-20 cell lines. […] To gain further insight into the mechanism underlying the regulation of Aurora A and B by SLLN-15, we next examined whether Aurora A and B were degraded via the proteasome pathway.

[3] = test system: cleaved-PARP, cleaved-caspase 3, Bcl-2 in MDA-MB-231 and BT-20 cells; assay: Western blot of indicators of apoptosis; type: cell-based
Method: as §1
Considering apoptosis is the major form of cell death induced by chemotherapeutic agent, we seek to identify whether the anticancer effect of SLLN-15 was mediated via apoptosis in breast cancer cells.

Janus kinase 2 (JAK2) = Janus kinase 2 (JAK2) (Homo sapiens, UniProt O60674); assay: SelectScreen kinase profiling (Invitrogen), high-throughput screening against a panel of kinases; type: biochemical; settings: 100 nM screening concentration
Method: (§3) FIG. S3A represents the SelectScreen kinase profiling (Invitrogen) results obtained against a panel of kinases for SLLN-15 at 100 nM.
as §2

Aurora kinase A = target: T1, Aurora kinase A (Homo sapiens, UniProt O14965); assay: as above; type: biochemical; settings: 100 nM screening concentration
T1 sequence (O14965 1-403): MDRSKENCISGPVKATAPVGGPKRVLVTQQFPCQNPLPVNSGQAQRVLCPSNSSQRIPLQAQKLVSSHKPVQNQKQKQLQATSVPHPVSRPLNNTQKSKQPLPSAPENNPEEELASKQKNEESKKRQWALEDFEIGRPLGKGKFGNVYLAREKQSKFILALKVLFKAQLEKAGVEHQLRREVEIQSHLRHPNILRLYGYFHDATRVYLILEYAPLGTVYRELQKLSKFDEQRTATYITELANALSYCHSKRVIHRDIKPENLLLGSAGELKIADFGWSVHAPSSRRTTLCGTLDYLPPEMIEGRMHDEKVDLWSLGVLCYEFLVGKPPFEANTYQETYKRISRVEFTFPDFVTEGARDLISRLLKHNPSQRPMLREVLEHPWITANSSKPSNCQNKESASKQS
Method: as §3, §2

[4] = test system: breast cancer cell lines MDA-MB-231, BT20, MDA-MD468, 4T1, MCF-7, SKBR3; assay: Colony formation assay (long-term cell viability); type: cell-based; settings: MDA-MB-231, BT20, MDA-MD468, 4T1, MCF-7 (ER+, PR+), SKBR3 (Her2+); FIG. 1B
Method: The long-term effects of SLLN-15 on tumor cell growth were assessed using the colony formation assay. Cells were trypsinized and plated in triplicate wells in 12-well plate (500 cells/well). After six hours of incubation, cells were treated with the indicated concentrations of SLLN-15 or DMSO. 7 days after the cells plated and treated, they were washed and stained with a mixture of 0.05% w/v crystal violet and 6% v/v glutaraldehyde, and the colonies >100 μm in diameter were counted using a colony counter (Oxford Optronix Gelcount, Inc., Milton Park, Abingdon, UK).

Chain of Janus kinase 2 (JAK2) (O60674 whole entry): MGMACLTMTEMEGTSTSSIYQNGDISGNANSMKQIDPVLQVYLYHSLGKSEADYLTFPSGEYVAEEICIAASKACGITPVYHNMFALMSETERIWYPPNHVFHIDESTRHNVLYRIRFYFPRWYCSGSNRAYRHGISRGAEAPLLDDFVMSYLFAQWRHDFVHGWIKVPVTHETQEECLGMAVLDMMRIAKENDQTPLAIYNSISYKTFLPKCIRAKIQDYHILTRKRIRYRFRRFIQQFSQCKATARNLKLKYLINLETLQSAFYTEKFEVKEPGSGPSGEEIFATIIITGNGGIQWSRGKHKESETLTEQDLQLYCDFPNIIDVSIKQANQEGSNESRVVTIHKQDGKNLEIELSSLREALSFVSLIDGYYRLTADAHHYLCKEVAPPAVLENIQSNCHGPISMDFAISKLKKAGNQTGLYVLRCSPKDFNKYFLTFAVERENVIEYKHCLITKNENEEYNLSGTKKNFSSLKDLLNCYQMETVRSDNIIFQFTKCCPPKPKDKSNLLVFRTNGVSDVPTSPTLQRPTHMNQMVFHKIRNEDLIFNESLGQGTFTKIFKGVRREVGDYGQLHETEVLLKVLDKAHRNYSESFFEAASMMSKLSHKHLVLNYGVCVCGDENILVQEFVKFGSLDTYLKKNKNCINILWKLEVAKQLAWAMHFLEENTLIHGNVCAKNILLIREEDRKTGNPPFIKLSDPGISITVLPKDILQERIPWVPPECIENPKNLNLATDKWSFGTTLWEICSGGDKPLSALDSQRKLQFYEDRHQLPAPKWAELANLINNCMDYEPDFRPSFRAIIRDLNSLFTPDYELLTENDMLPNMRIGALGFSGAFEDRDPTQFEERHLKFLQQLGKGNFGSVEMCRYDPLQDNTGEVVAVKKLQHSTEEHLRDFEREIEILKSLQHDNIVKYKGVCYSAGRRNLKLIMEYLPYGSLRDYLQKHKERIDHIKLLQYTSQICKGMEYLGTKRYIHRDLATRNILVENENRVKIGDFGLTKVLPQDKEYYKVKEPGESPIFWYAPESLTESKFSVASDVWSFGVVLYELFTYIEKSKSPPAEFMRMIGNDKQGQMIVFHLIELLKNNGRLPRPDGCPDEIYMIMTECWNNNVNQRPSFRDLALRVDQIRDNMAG

c1nc2nc(Nc3ccc(N4CC[Se]CC4)cc3)nc(N[C@H]3CC[Se]C3)c2[nH]1 [SLLN-15]
expression level of p62/SQSTM1, Beclin1, Atg5 and Atg7 ([1]; FIG. S2): no changes in their expression levels were observed | autophagic flux, mCherry-GFP-tagged LC3 ([1]; MDA-MB-231 and BT-20 cells, FIGS. 3A and B): increased formation of yellow fluorescence (autophagosomes) and red fluorescence (autophagolysosomes) | LC3-II/LC3-I ratio ([1]; SLLN-15 combined with chloroquine (CQ), compared to SLLN-15 alone, FIG. 3C): enhanced LC3-II/LC3-I ratio | LC3-II/I ratio ([1]; combination of SLLN-15 with 3-methyladenine (3-MA), FIG. 5C): significantly decreases LC3-II/I ratio | LC3-II conversion and LC3 puncta ([1]; dose-dependent, FIGS. 2A and B): increased LC3-II conversion and LC3 puncta | phosphorylation of Aurora A at Thr288, Aurora B at Thr232, Aurora C at Thr198 ([2]; 1 μM, FIG. 7A): strongly inhibited phosphorylation of both Aurora A at Thr288 and B at Thr232 but not Aurora C at Thr198 | expression of Aurora A over time ([2]; BT-20 cells, 6 hours post-treatment, FIG. 7C): downregulated the expression of Aurora A at earlier time points | Aurora A and Aurora B expression ([2]; dose-dependent, FIG. 7A): decreased both Aurora A and Aurora B expression | indicators of apoptosis: upregulation of cleaved-PARP and cleaved-caspase 3, downregulation of Bcl-2 ([3]; FIG. 6B): not SLLN-15 treated cells | apoptosis ([3]; up to 48 hours post-exposure, breast cancer cells): no significant apoptosis was observed | inhibition of Janus kinase 2 (JAK2) (Janus kinase 2 (JAK2)): 85% | inhibition of Aurora kinase A (Aurora kinase A): 91% | colony formation abilities [4]: equally inhibit the colony formation abilities
